According to patent US9738668B2:

Assays:
brain mitochondria = assay: Mitochondria swelling assay in response to Ca2+; parameters: species or system mice; settings: for calcium-mediated mitochondrial swelling: with calcium
Protocol: Brain from mice without white matter was used for mitochondrial isolation. Brain was homogenized in 9 ml of ice-cold EB buffer (1 mmol EDTA, 1-6 mg/ml BSA) using a Dounce homogenizer until no particles could be seen. Homogenates were centrifuged at 1300×g for 5 minutes. Supernatant from this fraction was carefully laid on top of a 15% PERCOLL solution (10 ml) and then centrifuged at 16000 RPM for 10 minutes. The pellet was carefully mixed with 9 ml of mitochondrial buffer (4.098% D-mannitol, 2.56% sucrose, 0.034% K2HPO4, pH 7.3-7.4) and 200 μl of 1% digitonin. After 5 minutes incubation on ice, the mixture was centrifuged at 8000 RPM for 10 minutes. Mitochondrial pellet was washed once with mitochondrial buffer. Subsequently, the mitochondrial pellet was resuspended in 100 μl of mitochondrial buffer and was used for further experiments.
A proper amount of mitochondria was resuspended into 1 ml swelling assay buffer (150 mM KCl, 2 mM KH2PO4, 10 mM HEPES, pH 7.4) and energized by 1 mM glutamate and 1 mM malate. Calcium at varying concentrations was added into the assay buffer to trigger mitochondrial swelling. Mitochondrial permeability transition was determined by studying the rate of change in absorbance at 540 nm via a spectrophotometer.
Given that the Compounds 4, 8 and 15 could inhibit ABAD activity, it was determined whether these same compounds could decrease mitochondrial permeability transition pore (mPTP) formation.

SK-N-SH cells = assay: Mitochondrial cytochrome c oxidase (CcO) activity in Aβ-treated cells; format: cell-based; settings: for CcO activity, inhibitor alone: 1 μM inhibitor without Aβ; for CcO activity: 5 μM oligomer Aβ1-42 plus 1 μM inhibitor, 48 hours
Protocol: SK-NSH cells were treated with 5 μM oligomer Aβ plus 1 μM of ABAD inhibitor; inhibitor alone; vehicle (VEH) without inhibitor; or Aβ alone. Forty-eight hour later, CcO activity (μmol protein mg^−1 min^−1) was measured in cell lysates.
The CcO activity was measured according to known methods (Du, et al. (2008) Nat. Med. 14:1097-105) with a cytochrome c oxidase kit (Sigma). In brief, SK-N-SH cells were incubated with ABAD inhibitor and oligomer Aβ for 48 hours. After washing the cells twice with PBS, the cells were collected and concentration was determined by the Bradford method. A suitable volume of cells and enzyme solution was added to 475 μl assay buffer. The reaction was triggered by the addition of 25 μl freshly prepared ferrocytochrome C substrate solution into the cuvette. Changes in OD550 nm were recorded immediately with an Amersham Biosciences ULTROSPECT 3100 pro spectrophotometer.
To assess the effect of ABAD inhibitor on Aft-induced mitochondrial respiratory function, CcO activity was determined.

cells [1] = assay: MTT reduction assay (cell survival and toxicity); format: cell-based; settings: 1, 10, 50, 100 μM, 48 to 66 hours
Protocol: The MTT (3-(4,5-dimethylthiazol-2-yl)-2,5-diphenyltetrazolium bromide) assay, which is widely used to measure cell proliferation and to screen for anticancer drugs, was used for assessing cell viability. Cells were treated with a range of ABAD compounds at 1, 10, 50, and 100 μM for 48 hours and then subjected to MTT reduction assay following the manufacture's instruction.
(§1) The effect of ABAD inhibitors on cell viability and toxicity was assessed using MTT reduction assay and trypan blue exclusion, which are widely used to assess cell survival and toxicity and to screen for drugs toxicity. Cells were treated with a range of concentrations of ABAD compound (4 and 8) at 1, 10, 50, 100 μM for 48 to 66 hours.

cells [2] = assay: Trypan blue dye exclusion (cell viability and toxicity); format: cell-based; settings: 1, 10, 50, 100 μM, 48 to 66 hours
Protocol: The trypan blue dye exclusion is commonly used for measuring cell viability and toxicity. 48-66 hours after treatment of ABAD compounds, the trypan blue exclusion experiments were performed. In brief, cells plated in 96-well plates were washed with the balanced salt solution (Hanks-Balanced Salts/HBSS) once, then replaced with HBSS including trypan blue solution to the final concentration of 0.2% (Sigma-Aldrich, St. Louis, Mo.), and mixed thoroughly. After standing at room temperature for 5 minutes, the cells were washed with HESS again and then maintained in the well with HBSS. Both the stained and unstained cells in each well were counted under a microscope (Nikon E400). The calculated percentage of unstained cells represented the percentage of viable cells. Cell viability (%)=total viable cells (unstained)/total cells (stained and unstained)×100.
as §1

[3] = Solubility in solvents during LC method development; format: physicochemical
Protocol: During the development of a detection method for analytes 4, 8 and 15, multiple solvents were tested to find the optimal mobile phase. […] Acetonitrile was selected for better peak shape and compatibility with serum/brain protein precipitation. Compounds 8 and 15 were chosen as IS, because of their structural similarity. Selected reaction monitoring (SRM) acquisitions were used for sensitivity and extended dynamic range. The cone voltage and collision energy were optimized for 4, 8 and 15 and the IS by continuously infusing a mixture of the two. The optimum cone voltage was 30V.

[4] = Pharmacokinetic study and BBB penetration, LC-MS/MS of plasma and brain; format: in vivo, C57BL6 mice; settings: mice, intravenous 10 mg/kg
Protocol: Using the validated LCMS/MS method, blood and brain levels of 4, 8, and 15 were measured in male and female C57BL6 mice (8-10 week-old, weighing approximately 25-30 grams). The mice were housed in a room with controlled temperature (23±3° C.) and moisture level (55±15% relative humidity) and exposed to a controlled 12 hour light/12 hour dark cycle. They were allowed to access to food and water ad libitum. Mice were fasted for 6 hours with free access to water prior to the pharmacokinetic study. To determine the time course of compounds 4, 8, and 15 action in the brain, the plasma pharmacokinetics and BBB penetration capability of the inhibitors were investigated. In these experiments, compounds 4, 8, and 15 were administered to mice by intravenous injection at a dosage of 10 mg/kg. Blood and brain samples were collected from mouse at each time point (2, 5, 10, 30, 60, 120, 240, 360, 720, 1440, and 2880 minutes), a total of 11 time points. For plasma measurements, blood (approximately 500-800 μl) was collected via cardiac-puncture into tubes containing sodium heparin anti-coagulant. Plasma was separated via centrifugation (4° C., 3500 rpm, 10 minutes) and stored in −80° C. freezer. For qualitative confirmations of these compounds in CSF, samples were collected at 2 time points (240 and 1440 min) from five animals at each time point. At the time of measurement, frozen plasma samples were thawed at room temperature and vortexed thoroughly. The following quantities were estimated using non-compartmental calculations performed with WINNONLIN 5.2 (Pharsight, Sunnyvale, Calif.): the area under the plasma concentration-time curve during the period of observation (AUC0-τ); the area under the plasma concentration-time curve from zero to infinity (AUC0-∞); the maximum plasma concentration (Cmax); the time to reach Cmax (Tmax); and the half-life (t1/2).
The LC-MS/MS method described above was used for the determination of 4, 8 and 15 in plasma, brain, and CSF for pharmacokinetic study. Based on the initial concentration data, the pharmacokinetic parameters including the area under the plasma concentration-time curve during the period of observation (AUC0-t), the area under the plasma concentration-time curve from zero to infinity (AUC0-∞) the maximum plasma concentration (Cmax) the time to reach Cmax (Tmax) and the half-life (t1/2) are shown in Table 8.

SMILES	calcium-mediated mitochondrial swelling (brain mitochondria)	mitochondrial swelling without calcium (brain mitochondria)	CcO activity, inhibitor alone (SK-N-SH cells)	CcO activity (SK-N-SH cells)	MTT reduction (cells [1])	percentage of trypan blue-positive cells (cells [2])	solubility in methanol or acetonitrile [3]	solubility in water [3]	t1/2 ([4]; Brain) [h]	t1/2 ([4]; Plasma) [h]
COC(=O)c1cc([C@H](Nc2nc3ccc(OC)cc3s2)P(=O)(OC)OC)ccc1O [Compound 4, Methyl 5-((dimethoxyphosphoryl)((6-methoxybenzo[d]thiazol-2-yl)amino)methyl)-2-hydroxybenzoate]	antagonized calcium-mediated mitochondrial swelling	did not affect mitochondrial swelling	had no effect on CcO activity	reversed the Aβ-mediated decrease of CcO activity	did not exhibit decreased MTT reduction	did not exhibit decreased MTT reduction, increased percentage of trypan blue-positive cells	dissolved readily	dissolved partially	17.1	6.2
COc1ccc2nc(N[C@@H](c3ccc(O)cc3)P(=O)(OC)OC)sc2c1 (racemic) [Compound 8, Dimethyl ((4-hydroxyphenyl)((6-methoxybenzo[d]thiazol-2-yl)amino)methyl)phosphonate]	antagonized calcium-mediated mitochondrial swelling	did not affect mitochondrial swelling	had no effect on CcO activity	reversed the Aβ-mediated decrease of CcO activity	did not exhibit decreased MTT reduction	did not exhibit decreased MTT reduction, increased percentage of trypan blue-positive cells	dissolved readily	dissolved partially	8.3	5.5
